We go through one molecule from patent publication US4977172A, “Method of treating the symptoms of cognitive decline in an elderly patient employing (S)-3-ethyl-4-[(1-methyl-1H-imidazol-5-yl)-methyl]-2-oxazolidinone” (Warner-Lambert Company, priority 1989, dated 1990).

Data set [1] is described as follows: Oral availability and duration of action. The following applies: in vivo.
The subject of data set [2] is rat. Nature of the data set: Increase in smooth muscle motility of the intestines (M2 active). The settings on record: PO. In kind it is in vivo. The source says: (§1) Thus, the receptor binding selectivity of (S)-3-ethyl-4-[(1-methyl-1H-imidazol-5-yl)methyl]-2-oxazolidinone translates into pharmacologic specificity in the whole animal with M1 actions (stomach emptying) predominating over M2 actions (enhanced intestinal motility). […] Additionally, as shown in Table I in the central nervous system the compound increases neocortical arousal as measured by quantitative electroencephalography at doses below those required to increase local cortical blood flow in rats.

In data set [3] the test system is rat. Nature of the data set: Increase in rate of stomach emptying (M1 active). The data set is classed as in vivo. The settings on record: PO.
Source text: as §1

The test system of data set [4] is Male Long-Evans rats. Kind of data set: Neocortical arousal by quantitative electroencephalography (QEEG). The data set is classed as in vivo. The following applies: rat, 10.0, 32.0 and 100.0 mg/kg tested. From the text: The methodology for determining neocortical arousal in rats by quantitative electroencephalography (QEEG) is as follows:
Male Long-Evans rats weighing 350 to 500 g were surgically implanted with stainless steel electrodes screwed into the skull surface overlying the frontal and occipital cortex. Electrodes were secured to a plastic connector (Plastic Products Model MS-363) which was permanently attached to the skull surface with dental acrylic. Animals were given one week to recover from surgery before testing.
After recovery from surgery, QEEG was measured Briefly, animals were placed into sound attenuating chambers during the light cycles of the rats diurnal cycle. Animals were allowed two hours to habituate to these environments. Thereafter, EEG was recorded continuously for ten minutes before and two hours after drug administration. Every other one-second sample of EEG was converted from the time to the frequency domain using a fast fourier transformation (FFT). […] Mean power within the 0 to 4 (delta), 5 to 8 (theta), 9 to 15 (alpha), 16 to 25 (beta) Hz bands was calculated separately for each bandwidth. Total power within all bandwidths also was calculated. […]
Data from each bandwidth and total power were analyzed separately using nonparametric ranked analysis of variance (Kruskals-Wallis rank transformed analysis with repeated measures). […]

Data set [5] has as its system central muscarinic antagonist and agonist binding sites, rat cerebral cortex tissue. Kind of data set: Receptor [3H]quinuclidinyl benzilate (RQNB) / [3H]cis-methyldioxalane (RCMD) binding, ratio of IC50 values. The settings on record: agonists ratio >=100, antagonists near 1, partial agonists between 1 and 100. Here is the method:
The biological activity of (S)-3-ethyl-4-[(1-methyl-1H-imidazol-5-yl)methyl]-2-oxazolidinone or a pharmaceutically acceptable salt thereof as an agent for the treatment of the symptoms of cognitive decline in an elderly patient including Alzheimer's disease was evaluated using a number of tests. The activity of the aforementioned compound or pharmaceutically acceptable salt thereof as a central muscarinic binding site agonist and antagonist was measured. Thus, in the Receptor [^3 H]Quinuclidinyl Benzilate Binding Assay (RQNB), described more fully by Watson, M., et al, Journal of Pharmacology and Experimental Therapeutics, 237, pages 411-418 (1986), rat cerebral cortex tissue is treated with radiolabeled quinuclidinyl benzilate, a known muscarinic binding site antagonist. The concentration of test compound required to inhibit 50% of the binding of this muscarinic antagonist is then determined. This procedure allows a determination of the affinity of the test compound for the central muscarinic antagonist site. […] The concentration of test compound required to inhibit 50% of the binding of this muscarinic agonist is then determined. […]

Data set [6] relates to M1 receptors / M2 receptors. Kind of data set: M1/M2 receptor binding: transformed cells possessing only M1 receptors and heart tissue (M2 receptors). The source says:
On the basis of molecular biology techniques, five subtypes of muscarinic receptors have been identified. For an agent useful in the treatment of cognitive decline in a patient, the relevant receptors are M1 since they are predominantly localized in brain areas associated with memory and learning (cortex and hippocampus). For comparison, M2 receptors are predominantly localized in peripheral tissues (e.g. the heart). […] The ratio of M1/M2 is shown in Table I. (S)-3-Ethyl-4-[(1-methyl-1H-imidazol-5-yl)methyl]-2-oxazolidinone is 3-fold selective for M1receptors over M2 receptors

Data set [7] deals with awake unanesthetized rat. Nature of the data set: Heart rate in the awake unanesthetized rat. The following applies: increase = M1 response, decrease = M2 response. The data set is classed as in vivo.
Source text: as §1

As usually defined, the ED50 is the dose at which the effect has come halfway, by size or by number of responders. High values mean a need for a large dose, low ones an effect at a small dose. As for `CCN1C(=O)OC[C@@H]1Cc1cncn1C` [(S)-3-ethyl-4-[(1-methyl-1H-imidazol-5-yl)methyl]-2-oxazolidinone], the duration of action result in data set [1] was “reasonable duration of action”. Besides, the oral availability result in data set [1] (po) is recorded as “good oral availability”. For the same molecule, the ED50 amounted to 13.1 mg/kg in data set [2] and 1.6 mg/kg in data set [3]. The “ELECTROENCEPHALOGRAPHY (ACTIVE DOSE RANGE, mg/kg, PO)” value in data set [4] is 10-100 mg/kg. Moreover, the “RQNB/RCMD (ratio of IC50 values, muscarinic antagonist/agonist binding)” value in data set [5] is 214. In addition, in data set [6] (receptor binding), the “selectivity for M1 receptors over M2 receptors” value is on record as 3 fold. For the same molecule, the “M1/M2 (RECEPTOR BINDING)” value in data set [6] (transformed cells with only M1 receptors vs heart tissue (M2)) stood at 3.3. In addition, the “effect on heart rate” value in data set [7] is “increases (an M1 response) rather than decreases (an M2 response) heart rate”.
